Data published in patent US11512090B2, “Muscarinic acetylcholine M1 receptor antagonists” (PIPELINE THERAPEUTICS, INC., priority 2018, dated 2022).
pIC50: −log10 of the molar value. Where two headings read alike, the source gives them in different places.

Experiments:
Assay type in all cases: cell-based
M3 = M3 (Homo sapiens, UniProt P20309); test: In vitro functional assay of muscarinic acetylcholine receptor activity, M3; conditions: antagonist IC50 at M3; read-out: M3 IC50
Description: [The procedure below names another target; the source lists this target under the same test.] (§1) CHO-K1 cells stably expressing human M1 receptor with Aequorin (Perkin Elmer) were grown in F12 media, 10% FBS with 0.4 mg/mL geneticin and […]. Cells were grown to confluence and frozen down to be assayed at a later date. On the day of the experiment cells were thawed in a 37° C. water bath, resuspended in DMEM/HAM's F12 with HEPES (Invitrogen)+0.1% protease-free BSA (assay buffer), and spun down to remove freezing media. After centrifugation, supernatant was removed and 12 mL of assay buffer was added. Coelenterazine h (Promega) was added to the cells at a final concentration of 5 uM and incubated for 4 hours at room temperature in the dark. Compound master plate-96 deep well (Corning) were formatted in a 8-point DRC in assay buffer with 0.2% DMSO at a starting concentration of 60 uM (2×). After 4 hours of incubation, cells were plated at a concentration of 5×10^5 cells/well in 96 well white-walled, tissue culture-treated, clear-bottom plates (VWR). Compounds were added to the daughter plate, and cells plus compound were incubated at room temperature for 30 minutes in the dark.
(§2) Calcium flux was measured using the FlexStation 3 (Molecular Devices). To measure the antagonist dose-response, the EC80 of Acetylcholine was injected to the daughter plate using the automated compound transfer function of the Flex Station, and the increase in luminescence was measured over time. Antagonist activity was analyzed as a concentration dependent decrease in the EC80 acetylcholine response. Dose response curves were generated using Prism (GraphPad Software). The IC50 of the compounds was calculated from the dose response curve.

human M1 receptor = target: T1, human M1 receptor (Homo sapiens, UniProt P11229); test: In vitro functional assay of muscarinic acetylcholine receptor activity (aequorin calcium flux, antagonist mode vs EC80 acetylcholine), M1
T1 sequence (P11229 1-460): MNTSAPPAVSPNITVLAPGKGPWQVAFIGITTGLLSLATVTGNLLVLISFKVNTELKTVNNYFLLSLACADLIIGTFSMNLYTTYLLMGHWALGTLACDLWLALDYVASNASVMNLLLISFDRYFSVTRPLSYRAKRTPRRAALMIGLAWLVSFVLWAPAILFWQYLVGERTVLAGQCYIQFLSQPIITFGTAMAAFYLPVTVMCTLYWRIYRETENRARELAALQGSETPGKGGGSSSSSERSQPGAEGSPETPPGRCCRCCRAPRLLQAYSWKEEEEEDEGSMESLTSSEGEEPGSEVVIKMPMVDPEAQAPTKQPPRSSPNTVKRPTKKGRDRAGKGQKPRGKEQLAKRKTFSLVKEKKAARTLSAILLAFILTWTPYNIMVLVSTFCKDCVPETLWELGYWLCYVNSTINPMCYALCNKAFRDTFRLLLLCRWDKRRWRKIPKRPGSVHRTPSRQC
Description: as §1, §2

M2 = target: T2, M2 (Homo sapiens, UniProt P08172); test: In vitro functional assay of muscarinic acetylcholine receptor activity, M2
T2 sequence (P08172 1-466): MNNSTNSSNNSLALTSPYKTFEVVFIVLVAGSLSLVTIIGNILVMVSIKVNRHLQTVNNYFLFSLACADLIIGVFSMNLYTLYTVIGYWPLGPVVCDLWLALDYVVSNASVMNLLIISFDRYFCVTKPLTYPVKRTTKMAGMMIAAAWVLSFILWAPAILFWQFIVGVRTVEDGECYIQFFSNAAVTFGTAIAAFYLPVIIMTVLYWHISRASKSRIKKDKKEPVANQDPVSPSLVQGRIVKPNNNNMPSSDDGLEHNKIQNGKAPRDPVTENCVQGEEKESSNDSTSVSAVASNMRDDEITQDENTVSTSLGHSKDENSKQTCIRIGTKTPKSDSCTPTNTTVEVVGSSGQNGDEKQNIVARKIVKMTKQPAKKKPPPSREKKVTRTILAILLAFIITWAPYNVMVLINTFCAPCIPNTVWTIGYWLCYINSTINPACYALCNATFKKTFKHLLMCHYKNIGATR
Description: [The procedure below names another target; the source lists this target under the same test.] as §1, §2

[1] = CHO-K1 cells stably expressing human M1 receptor with Aequorin, decrease in EC80 acetylcholine response, read-out: M1 IC50
[2] = antagonist IC50 at M2, read-out: M2 IC50

M3, sequence (P20309 whole entry): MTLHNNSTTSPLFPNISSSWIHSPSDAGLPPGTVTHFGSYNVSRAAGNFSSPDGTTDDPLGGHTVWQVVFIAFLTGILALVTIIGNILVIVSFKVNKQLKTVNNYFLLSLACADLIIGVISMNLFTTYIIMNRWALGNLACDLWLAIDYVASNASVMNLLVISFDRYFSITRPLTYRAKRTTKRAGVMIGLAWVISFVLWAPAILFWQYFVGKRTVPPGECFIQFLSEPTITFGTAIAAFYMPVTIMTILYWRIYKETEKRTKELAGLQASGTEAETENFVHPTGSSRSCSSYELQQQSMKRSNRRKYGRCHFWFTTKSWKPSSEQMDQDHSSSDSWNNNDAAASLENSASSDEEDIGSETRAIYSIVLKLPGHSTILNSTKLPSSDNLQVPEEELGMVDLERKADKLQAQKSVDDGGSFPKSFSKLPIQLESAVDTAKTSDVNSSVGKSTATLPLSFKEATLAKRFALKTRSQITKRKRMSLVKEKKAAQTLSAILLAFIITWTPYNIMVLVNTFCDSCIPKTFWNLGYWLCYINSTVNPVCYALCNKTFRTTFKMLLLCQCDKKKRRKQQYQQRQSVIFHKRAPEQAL

SMILES	pIC50 (M3)	pIC50 (human M1 receptor; [1])	pIC50 (M2; [2])	pIC50 (human M1 receptor)	pIC50 (M2)
Cc1cc(F)cnc1N1C[C@H]2C[C@@H]1CN2C(=O)CCCc1cccc2ncccc12 (racemic) [Example 53, rac-1-((1R,4R)-5-(5-fluoro-3-methylpyridin-2-yl)-2,5-diazabicyclo[2.2.1]heptan-2-yl)-4-(quinolin-5-yl)butan-1-one]	< 5.00	5.00 to 6.00	5.00 to 6.00		
O=C(CCCc1cccc2ncccc12)N1C[C@H]2C[C@@H]1CN2c1ccc(F)cn1 (racemic) [Example 54, rac-1-((1R,4R)-5-(5-fluoropyridin-2-yl)-2,5-diazabicyclo[2.2.1]heptan-2-yl)-4-(quinolin-5-yl)butan-1-one]	< 5.00	6.00 to 7.00	5.00 to 6.00		
O=C(COCc1cccc2ncccc12)N1C[C@H]2CC[C@@H](C1)N2c1ccc(F)cn1 [Example 1, 1-((1R,5S)-8-(5-fluoropyridin-2-yl)-3,8-diazabicyclo[3.2.1]octan-3-yl)-2-(quinolin-5-ylmethoxy)ethan-1-one]	< 5.00		5.00 to 6.00	> 7.00	
O=C(CC1CN(c2cccc3ncccc23)C1)N1C[C@H]2CC[C@@H](C1)N2c1ccc(F)cn1 [Example 2, 1-((1R,5S)-8-(5-fluoropyridin-2-yl)-3,8-diazabicyclo[3.2.1]octan-3-yl)-2-(1-(quinolin-5-yl)azetidin-3-yl)ethan-1-one]	< 5.00	5.00 to 6.00	5.00 to 6.00		
O=C(N1CC(Oc2cccc3cnccc23)C1)N1C[C@H]2CC[C@@H](C1)N2c1ccc(F)cn1 [Example 3, ((1R,5S)-8-(5-fluoropyridin-2-yl)-3,8-diazabicyclo[3.2.1]octan-3-yl)(3-(isoquinolin-5-yloxy)azetidin-1-yl)methanone]	5.00 to 6.00	< 5.00			6.00 to 7.00
O=C(CCCc1cccc2ncccc12)N1CCN(c2ccncc2)CC1 [Example 4, 1-(4-(pyridin-4-yl)piperazin-1-yl)-4-(quinolin-5-yl)butan-1-one]	5.00 to 6.00	> 7.00	5.00 to 6.00		
CC1CN(c2ccc(F)cn2)CCN1C(=O)[C@H]1C[C@H](Oc2cccc3ncsc23)C1 (stereo partly drawn) [Example 5, ((1R,3R)-3-(benzo[d]thiazol-7-yloxy)cyclobutyl)(4-(5-fluoropyridin-2-yl)-2-methylpiperazin-1-yl)methanone]	< 5.00	< 5.00	< 5.00		
O=C(C1CN(Cc2cccc3ncsc23)C1)N1C[C@H]2CC[C@@H](C1)N2c1ccncc1F [Example 7]	< 5.00	5.00 to 6.00	< 5.00		
O=C(CCNCc1cccc2ncsc12)N1C[C@H]2CC[C@@H](C1)N2c1ccncc1F [Example 8, 3-((benzo[d]thiazol-7-ylmethyl)amino)-1-((1R,5S)-8-(3-fluoropyridin-4-yl)-3,8-diazabicyclo[3.2.1]octan-3-yl)propan-1-one]	5.00 to 6.00		5.00 to 6.00	> 7.00	
O=C(C1CC1COc1cccc2ncsc12)N1C[C@H]2CC[C@@H](C1)N2c1ccncc1F (stereo partly drawn) [Example 9, (2-((benzo[d]thiazol-7-yloxy)methyl)-cyclopropyl)((1R,5S)-8-(3-fluoropyridin-4-yl)-3,8-diazabicyclo[3.2.1]octan-3-yl)methanone]	5.00 to 6.00	< 5.00	5.00 to 6.00		
O=C(CCNCc1cccc2ncccc12)N1C[C@H]2CC[C@@H](C1)N2c1ccncc1F [Example 10, 1-((1R,5S)-8-(3-fluoropyridin-4-yl)-3,8-diazabicyclo[3.2.1]octan-3-yl)-3-((quinolin-5-ylmethyl)amino)propan-1-one]	< 5.00	5.00 to 6.00	< 5.00		
O=C(COCCc1cccc2ncccc12)N1C[C@H]2CC[C@@H](C1)N2c1ccncc1F [Example 11, 1-((1R,5S)-8-(3-fluoropyridin-4-yl)-3,8-diazabicyclo-[3.2.1]octan-3-yl)-2-(2-(quinolin-5-yl)ethoxy)ethan-1-one]	< 5.00		5.00 to 6.00	6.00 to 7.00	
O=C(CCOCc1cccc2nccn12)N1C[C@H]2CC[C@@H](C1)N2c1ccncc1F [Example 12, 1-((1R,5S)-8-(3-fluoropyridin-4-yl)-3,8-diazabicyclo[3.2.1]octan-3-yl)-3-(imidazo[1,2-a]pyridin-5-ylmethoxy)propan-1-one]	< 5.00		5.00 to 6.00	6.00 to 7.00	
Cc1cc(F)cnc1N1CCN(C(=O)CNCc2cccc3ncccc23)[C@@H](C)C1 [Example 13, 1-[(2S)-4-(5-fluoro-3-methylpyridin-2-yl)-2-methylpiperazin-1-yl]-2-[[(quinolin-5-yl)methyl]amino]ethanone]	5.00 to 6.00	6.00 to 7.00	5.00 to 6.00		
O=C(CCNCc1cccc2nccn12)N1CC2CCC(C1)N2c1ccncc1F [Example 14, 1-[8-(3-fluoropyridin-4-yl)-3,8-diazabicyclo[3.2.1]octan-3-yl]-3-[([imidazo[1,2-a]pyridin-5-yl]methyl)amino]propan-1-one]	< 5.00		< 5.00	6.00 to 7.00	
N#Cc1ccc(N2C3CCC2CN(C(=O)CCNCc2c(F)ccc4ncnn24)C3)nc1 [Example 41, 6-(3-{3-[({6-fluoro-[1,2,4]triazolo[1,5-a]pyridin-5-yl}methyl)amino]propanoyl}-3,8-diazabicyclo[3.2.1]octan-8-yl)pyridine-3-carbonitrile]				> 7.00	
O=C(CCNCc1cccc2ncsc12)N1CCN(c2ccc(C(F)(F)F)cn2)CC1 [Example 119, 3-{[(1,3-benzothiazol-7-yl)methyl)amino}-1-{4-[5-(trifluoromethyl)pyridin-2-yl]piperazin-1-yl}propan-1-one]	< 5.00	5.00 to 6.00			
Cc1ccc(N2C3CCC2CN(C(=O)CCOCc2cccn4ncnc24)C3)nn1 [Example 189, 1-[8-(6-methylpyridazin-3-yl)-3,8-diazabicyclo[3.2.1]octan-3-yl]-3-({[1,2,4]triazolo[1,5-a]pyridin-8-yl}methoxy)propan-1-one]				6.00 to 7.00	
O=Cc1ccc(N2C3CCC2CN(C(=O)CCOCc2cccn4ncnc24)C3)nc1 [Example 190, 6-{3-[3-({[1,2,4]triazolo[1,5-a]pyridin-8-yl}methoxy)propanoyl]-3,8-diazabicyclo[3.2.1]octan-8-yl}pyridine-3-carbaldehyde]				> 7.00	
N#Cc1ccc(N2C3CCC2CN(C(=O)CCN(Cc2cccc4ncnn24)C2CCC2)C3)nc1 [Example 191, 6-(3-{3-[cyclobutyl({[1,2,4]triazolo[1,5-a]pyridin-5-yl}methyl)amino]propanoyl}-3,8-diazabicyclo[3.2.1]octan-8-yl)pyridine-3-carbonitrile]		5.00 to 6.00			
O=C([C@H]1C[C@H](Nc2cccc3ncccc23)C1)N1CC2CCC(C1)N2c1ccncc1 [Example 196, N-[(1r,3r)-3-[8-(pyridin-4-yl)-3,8-diazabicyclo[3.2.1]octane-3-carbonyl]cyclobutyl]quinolin-5-amine]		5.00 to 6.00			
N#Cc1ccc(N2C3CCC2CN(C(=O)CCCc2cccn4ncnc24)C3)nc1 [Example 198, 6-[3-(4-{[1,2,4]triazolo[1,5-a]pyridin-8-yl}butanoyl)-3,8-diazabicyclo[3.2.1]octan-8-yl]pyridine-3-carbonitrile]				> 7.00	
N#Cc1ccc(N2C3CCC2CN(C(=O)CCCc2cccc4ncnn24)C3)nc1 [Example 199, 6-[3-(4-{[1,2,4]triazolo[1,5-a]pyridin-5-yl}butanoyl)-3,8-diazabicyclo[3.2.1]octan-8-yl]pyridine-3-carbonitrile]				> 7.00	
